“And” between values parts separate entries of the source, which are not always exact repeats. Equal entries are not always repeated. Toxic doses and inconclusive results are not listed. How the source made its calls: active means survival T/C of 150% or more; inactive means T/C below 125% in these data.
System: AKR/Lw mice, AKR lymphoma ip, median survival T/C
Test: NCI In Vivo Anticancer Drug Screen. Data for tumor model Lymphoma AKR (Transplanted) (intraperitoneal) in AKR/Lw mice
Details: endpoint: median survival time, higher = longer survival
Procedure: The antitumor activity of compounds was measured in mice bearing transplantable tumors. Survival or tumor size were measured and the results are expressed as the measurement made in the treated group (T) divided by the measurement made in the vehicle treated control group (C). The tumor model used in this assay is Lymphoma AKR (Transplanted) (intraperitoneal) in AKR/Lw mice

[1] = dose: 100.0 mg/kg/injection, schedule: Q01DX001 (ip), vehicle: saline
[2] = dose: 150.0 mg/kg/injection, schedule: Q04DX003 (ip), vehicle: saline
[3] = dose: 200.0 mg/kg/injection, schedule: Q01DX001 (ip), vehicle: saline
[4] = dose: 50.0 mg/kg/injection, schedule: Q01DX001 (ip), vehicle: saline

Measured: T/C

NC(=O)NO
inactive: dose: 15.6 mg/kg/injection, schedule: Q06HX012 (ip), vehicle: saline 93 % of control | dose: 15.6 mg/kg/injection, schedule: Q06HX016 (ip), vehicle: saline 96 % of control | dose: 25.0 mg/kg/injection, schedule: Q06HX012 (ip), vehicle: saline 100 % of control | dose: 31.25 mg/kg/injection, schedule: Q06HX012 (ip), vehicle: saline 96 % of control | dose: 50.0 mg/kg/injection, schedule: Q01DX009 (ip), vehicle: saline 94 % of control | dose: 50.0 mg/kg/injection, schedule: Q06HX012 (ip), vehicle: saline 100 % of control | dose: 62.5 mg/kg/injection, schedule: Q06HX004 (ip), vehicle: saline 92 % of control and 100 % of control | dose: 62.5 mg/kg/injection, schedule: Q06HX008 (ip), vehicle: saline 93 % of control | dose: 62.5 mg/kg/injection, schedule: Q06HX012 (ip), vehicle: saline 93 % of control | dose: 62.5 mg/kg/injection, schedule: Q06HX016 (ip), vehicle: saline 100 % of control | dose: 75.0 mg/kg/injection, schedule: Q06HX012 (ip), vehicle: saline 96 % of control | dose: 100.0 mg/kg/injection, schedule: Q06HX008 (ip), vehicle: saline 92 % of control | dose: 100.0 mg/kg/injection, schedule: Q06HX012 (ip), vehicle: saline 88 % of control

COc1cc2c(cc1OC)[C@H]1CNC[C@H]1[C@@H](c1ccccc1)C2
inactive: dose: 75.0 mg/kg/injection, schedule: Q04DX003 (ip), vehicle: saline 110 % of control | [1] 105 % of control | [2] 103 % of control | [3] 100 % of control | dose: 400.0 mg/kg/injection, schedule: Q01DX001 (ip), vehicle: saline 97 % of control

COc1ccc(S(=O)O)cc1NC(C)=O
inactive: dose: 50.0 mg/kg/injection, schedule: Q04DX003 (ip), vehicle: other 95 % of control | [1] 107 % of control | dose: 100.0 mg/kg/injection, schedule: Q04DX003 (ip), vehicle: other 97 % of control | [3] 101 % of control | dose: 200.0 mg/kg/injection, schedule: Q04DX003 (ip), vehicle: other 95 % of control

C[C@]12C=CC(=O)C=C1CC[C@@H]1[C@@H]2C(=O)C[C@@]2(C)[C@H]1CC[C@]2(O)C(=O)CO
inactive: dose: 1.5 mg/kg/injection, schedule: Q ##X008 (sc), vehicle: steriod suspending solution 108 % of control | dose: 1.5 mg/kg/injection, schedule: Q## X008 (sc), vehicle: steriod suspending solution 108 % of control | dose: 3.0 mg/kg/injection, schedule: Q ##X008 (sc), vehicle: steriod suspending solution 109 % of control | dose: 3.0 mg/kg/injection, schedule: Q## X008 (sc), vehicle: steriod suspending solution 109 % of control | dose: 5.0 mg/kg/injection, schedule: Q01DX009 (sc), vehicle: steriod suspending solution 97 % of control | dose: 6.0 mg/kg/injection, schedule: Q ##X008 (sc), vehicle: steriod suspending solution 106 % of control | dose: 6.0 mg/kg/injection, schedule: Q## X008 (sc), vehicle: steriod suspending solution 106 % of control | dose: 10.0 mg/kg/injection, schedule: Q01DX009 (sc), vehicle: steriod suspending solution 100 % of control | dose: 12.0 mg/kg/injection, schedule: Q ##X008 (sc), vehicle: steriod suspending solution 120 % of control | dose: 12.0 mg/kg/injection, schedule: Q## X008 (sc), vehicle: steriod suspending solution 120 % of control | dose: 12.5 mg/kg/injection, schedule: Q01DX001 (sc), vehicle: steriod suspending solution 108 % of control | dose: 12.5 mg/kg/injection, schedule: Q01DX008 (sc), vehicle: steriod suspending solution 94 % of control | dose: 12.5 mg/kg/injection, schedule: Q04DX003 (sc), vehicle: steriod suspending solution 112 % of control | dose: 12.5 mg/kg/injection, schedule: Q## X008 (sc), vehicle: steriod suspending solution 94 % of control | dose: 15.0 mg/kg/injection, schedule: Q04DX002 (sc), vehicle: water 96 % of control | dose: 20.0 mg/kg/injection, schedule: Q01DX009 (sc), vehicle: steriod suspending solution 108 % of control | dose: 25.0 mg/kg/injection, schedule: Q01DX001 (sc), vehicle: steriod suspending solution 108 % of control and 113 % of control | dose: 25.0 mg/kg/injection, schedule: Q01DX004 (sc), vehicle: steriod suspending solution 115 % of control | dose: 25.0 mg/kg/injection, schedule: Q01DX008 (sc), vehicle: steriod suspending solution 119 % of control | dose: 25.0 mg/kg/injection, schedule: Q01DX009 (sc), vehicle: Klucel (hydroxypropylcellulose) (HPC) 96 % of control | dose: 25.0 mg/kg/injection, schedule: Q01DX009 (sc), vehicle: steriod suspending solution 100 % of control | dose: 25.0 mg/kg/injection, schedule: Q04DX002 (sc), vehicle: steriod suspending solution 99 % of control and 100 % of control | dose: 25.0 mg/kg/injection, schedule: Q04DX003 (sc), vehicle: steriod suspending solution 87 % of control | dose: 25.0 mg/kg/injection, schedule: Q## X008 (sc), vehicle: steriod suspending solution 120 % of control | dose: 30.0 mg/kg/injection, schedule: Q04DX002 (sc), vehicle: water 94 % of control and 98 % of control | dose: 35.0 mg/kg/injection, schedule: Q01DX001 (sc), vehicle: steriod suspending solution 96 % of control | dose: 45.0 mg/kg/injection, schedule: Q01DX001 (sc), vehicle: steriod suspending solution 105 % of control | dose: 50.0 mg/kg/injection, schedule: Q01DX004 (sc), vehicle: steriod suspending solution 100 % of control | dose: 50.0 mg/kg/injection, schedule: Q01DX008 (sc), vehicle: steriod suspending solution 101 % of control | dose: 50.0 mg/kg/injection, schedule: Q01DX009 (ip), vehicle: water 115 % of control | dose: 50.0 mg/kg/injection, schedule: Q01DX009 (sc), vehicle: steriod suspending solution 110 % of control | dose: 50.0 mg/kg/injection, schedule: Q04DX002 (sc), vehicle: steriod suspending solution 109 % of control | dose: 50.0 mg/kg/injection, schedule: Q04DX003 (sc), vehicle: steriod suspending solution 100 % of control and 108 % of control and 112 % of control | dose: 50.0 mg/kg/injection, schedule: Q## X008 (sc), vehicle: steriod suspending solution 101 % of control | dose: 60.0 mg/kg/injection, schedule: Q04DX002 (sc), vehicle: water 110 % of control and 111 % of control | dose: 75.0 mg/kg/injection, schedule: Q01DX001 (sc), vehicle: steriod suspending solution 100 % of control | dose: 75.0 mg/kg/injection, schedule: Q04DX002 (sc), vehicle: steriod suspending solution 106 % of control | dose: 90.0 mg/kg/injection, schedule: Q01DX001 (sc), vehicle: steriod suspending solution 114 % of control | dose: 100.0 mg/kg/injection, schedule: Q01DX004 (sc), vehicle: steriod suspending solution 113 % of control | dose: 100.0 mg/kg/injection, schedule: Q01DX008 (sc), vehicle: steriod suspending solution 78 % of control | dose: 100.0 mg/kg/injection, schedule: Q01DX009 (ip), vehicle: water 118 % of control | dose: 100.0 mg/kg/injection, schedule: Q01DX009 (sc), vehicle: steriod suspending solution 102 % of control | dose: 100.0 mg/kg/injection, schedule: Q04DX002 (sc), vehicle: steriod suspending solution 110 % of control | [2] 92 % of control | dose: 150.0 mg/kg/injection, schedule: Q04DX003 (sc), vehicle: steriod suspending solution 105 % of control and 118 % of control and 121 % of control | dose: 180.0 mg/kg/injection, schedule: Q01DX001 (sc), vehicle: steriod suspending solution 120 % of control | dose: 200.0 mg/kg/injection, schedule: Q01DX001 (sc), vehicle: steriod suspending solution 93 % of control and 102 % of control (2×) | dose: 200.0 mg/kg/injection, schedule: Q01DX009 (sc), vehicle: steriod suspending solution 89 % of control | dose: 300.0 mg/kg/injection, schedule: Q04DX003 (ip), vehicle: saline 95 % of control | dose: 300.0 mg/kg/injection, schedule: Q04DX003 (sc), vehicle: steriod suspending solution 114 % of control and 115 % of control (2×) | dose: 400.0 mg/kg/injection, schedule: Q04DX003 (sc), vehicle: steriod suspending solution 95 % of control | dose: 500.0 mg/kg/injection, schedule: Q01DX001 (sc), vehicle: steriod suspending solution 95 % of control | dose: 600.0 mg/kg/injection, schedule: Q01DX001 (sc), vehicle: steriod suspending solution 102 % of control

C[N+]1(C)Cc2ccccc2-c2ccccc2C1
inactive: [4] 94 % of control

C1CC[N+]2=C(C1)OCCC2
inactive: [4] 94 % of control | [1] 91 % of control | [3] 97 % of control

O=C(O)CCC(=O)Nc1cccc(Oc2ccc([N+](=O)[O-])cc2[N+](=O)[O-])c1
inactive: dose: 100.0 mg/kg/injection, schedule: Q01DX001 (ip), vehicle: Klucel (hydroxypropylcellulose) (HPC) 100 % of control | dose: 200.0 mg/kg/injection, schedule: Q01DX001 (ip), vehicle: Klucel (hydroxypropylcellulose) (HPC) 87 % of control | dose: 400.0 mg/kg/injection, schedule: Q01DX001 (ip), vehicle: Klucel (hydroxypropylcellulose) (HPC) 90 % of control
